The text below walks through data of patent US10519152B2, “Compounds and their use in treating cancer” (AstraZeneca AB, priority 2017, dated 2019).

For this assay, the target named is T1, Estrogen Receptor (ERα) in MCF-7 human ductal carcinoma breast cell line (Homo sapiens, UniProt P03372).
T1 construct: endogenous in cells; host or cells: MCF-7
T1 sequence (P03372 1-595): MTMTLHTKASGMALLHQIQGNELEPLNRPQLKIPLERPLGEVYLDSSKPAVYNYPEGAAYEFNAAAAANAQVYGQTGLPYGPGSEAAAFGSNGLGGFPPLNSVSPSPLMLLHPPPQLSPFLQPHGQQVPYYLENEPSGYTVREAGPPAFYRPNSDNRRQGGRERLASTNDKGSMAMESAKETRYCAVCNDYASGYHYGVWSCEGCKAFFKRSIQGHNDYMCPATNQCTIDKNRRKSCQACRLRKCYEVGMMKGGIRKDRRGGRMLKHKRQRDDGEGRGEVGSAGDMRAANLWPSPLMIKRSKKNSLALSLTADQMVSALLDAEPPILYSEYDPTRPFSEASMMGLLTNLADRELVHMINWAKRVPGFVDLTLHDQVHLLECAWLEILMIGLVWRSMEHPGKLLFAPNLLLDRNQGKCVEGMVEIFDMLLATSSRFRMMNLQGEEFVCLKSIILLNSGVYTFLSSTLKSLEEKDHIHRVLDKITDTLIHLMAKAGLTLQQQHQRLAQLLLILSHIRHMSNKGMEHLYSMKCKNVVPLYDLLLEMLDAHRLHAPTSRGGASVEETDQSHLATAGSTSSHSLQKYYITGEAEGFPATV
Kind of assay: MCF-7 ER degradation assay (cell based immuno-fluorescence). To be noted: MCF-7 cells; for ER degradation ≥ 90% at 0.3 μM: ER degradation by fulvestrant at 0.3 μM is defined as 100%; for DC50: 18-22 hours incubation, 50% reduction of ERα expression, single experiment or average of two or more, read-out: MCF-7 ER degradation IC50. In short, it runs like this: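 MCF-7 human ductal carcinoma breast cells were seeded at 3.75×10^4 cells per mL (40 μL per well) in 384 well plates with phenol red free DMEM containing 2 mM L-Glutamine and 5% (v/v) Charcoal/Dextran treated foetal calf serum. After overnight culture, compounds were acoustically dispensed, incubated 18-22 hours, then cells were formaldehyde-fixed and immunostained for ERα.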

Turning to `Cc1ncsc1-c1ccc(CNC(=O)[C@@H]2C[C@@H](O)CN2C(=O)[C@@H](NC(=O)COCCOc2ccc(COc3cc(F)c([C@@H]4c5[nH]c6ccccc6c5C[C@@H](C)N4CC(C)(C)F)c(F)c3)cc2)C(C)(C)C)cc1` [Example 5, (2S,4R)-1-((S)-2-(2-(2-(4-((3,5-Difluoro-4-((1R,3R)-2-(2-fluoro-2-methylpropyl)-3-methyl-2,3,4,9-tetrahydro-1H-pyrido[3,4-b]indol-1-yl)phenoxy)methyl)phenoxy)ethoxy)acetamido)-3,3-dimethylbutanoyl)-4-hydroxy-N-(4-(4-methylthiazol-5-yl)benzyl)pyrrolidine-2-carboxamide], the “ER degradation ≥ 90% at 0.3 μM” value is given as “•” and the DC50 is 2.6 nM.
Take `Cc1ncsc1-c1ccc(CNC(=O)[C@@H]2C[C@@H](O)CN2C(=O)[C@@H](NC(=O)COCCCCCCCOc2ccc([C@@H]3c4[nH]c5ccccc5c4C[C@@H](C)N3CC(F)F)nc2)C(C)(C)C)cc1` [Example 6, (2S,4R)-1-((S)-2-(2-((7-((6-((1S,3R)-2-(2,2-Difluoroethyl)-3-methyl-2,3,4,9-tetrahydro-1H-pyrido[3,4-b]indol-1-yl)pyridin-3-yl)oxy)heptyl)oxy)acetamido)-3,3-dimethylbutanoyl)-4-hydroxy-N-(4-(4-methylthiazol-5-yl)benzyl)pyrrolidine-2-carboxamide]: the “ER degradation ≥ 90% at 0.3 μM” value is reported as “••” and the DC50 stood at 3.6 nM.
On the same counts, the results for `Cc1ncsc1-c1ccc(CNC(=O)[C@@H]2C[C@@H](O)CN2C(=O)[C@@H](NC(=O)COCCCCCCCOc2cc(F)c([C@@H]3c4[nH]c5ccccc5c4C[C@@H](C)N3CC(C)(C)F)c(F)c2)C(C)(C)C)cc1` [Example 7, (2S,4R)-1-((S)-2-(2-((7-(3,5-Difluoro-4-((1R,3R)-2-(2-fluoro-2-methylpropyl)-3-methyl-2,3,4,9-tetrahydro-1H-pyrido[3,4-b]indol-1-yl)phenoxy)heptyl)oxy)acetamido)-3,3-dimethylbutanoyl)-4-hydroxy-N-(4-(4-methylthiazol-5-yl)benzyl)pyrrolidine-2-carboxamide] are “••” and 1.6 nM.
For `Cc1ncsc1-c1ccc(CNC(=O)[C@@H]2C[C@@H](O)CN2C(=O)[C@@H](NC(=O)COCCCCCCOc2ccc([C@@H]3c4[nH]c5ccccc5c4C[C@@H](C)N3CC(F)F)nc2)C(C)(C)C)cc1` [Example 8, (2S,4R)-1-((S)-2-(2-((6-((6-((1S,3R)-2-(2,2-Difluoroethyl)-3-methyl-2,3,4,9-tetrahydro-1H-pyrido[3,4-b]indol-1-yl)pyridin-3-yl)oxy)hexyl)oxy)acetamido)-3,3-dimethylbutanoyl)-4-hydroxy-N-(4-(4-methylthiazol-5-yl)benzyl)pyrrolidine-2-carboxamide], the “ER degradation ≥ 90% at 0.3 μM” value is recorded as “••” and the DC50 was found to be 9.4 nM.
On the same counts, the results for `Cc1ncsc1-c1ccc(CNC(=O)[C@@H]2C[C@@H](O)CN2C(=O)[C@@H](NC(=O)COCCCCCOCCOc2cc(F)c([C@@H]3c4[nH]c5ccccc5c4C[C@@H](C)N3CC(C)(C)F)c(F)c2)C(C)(C)C)cc1` [Example 9, (2S,4R)-1-((S)-2-(2-((5-(2-(3,5-Difluoro-4-((1R,3R)-2-(2-fluoro-2-methylpropyl)-3-methyl-2,3,4,9-tetrahydro-1H-pyrido[3,4-b]indol-1-yl)phenoxy)ethoxy)pentyl)oxy)acetamido)-3,3-dimethylbutanoyl)-4-hydroxy-N-(4-(4-methylthiazol-5-yl)benzyl)pyrrolidine-2-carboxamide] are “••” and 0.7 nM.
